In patent US20050261236A1, “Agonists of A2A adenosine receptors for treatment of diabetic nephropathy” (priority 2004, published 2005):

Tests used:
[1] = system: fibronectin mRNA; experiment: Fibronectin mRNA (polymerase chain reaction) after induction of diabetes; format: in vivo; conditions: RNA from diabetic rats, PCR, FIG. 5, in words
Protocol: RNA from diabetic rats were extracted and subjected to polymerase chain reaction to examine profibrogenic factors. […] Trichrome stain of kidneys from diabetic rats treated with vehicle for 6 weeks (Panels a, c) or ATL146e-10 ng/kg/min (Panels b, d). Magnification ×400. Each panel represents a photograph from a different test animal. Results are illustrated in FIG. 5.

[2] = system: diabetic rats; experiment: Plasma creatinine in diabetes; format: in vivo; conditions: diabetic rats versus vehicle, FIG. 2, in words
Protocol: (§1) Rats were administered ATL146e (10 ng/kg/min) or vehicle by osmotic minipumps prior to the induction of diabetes by STZ (50 mg/kg, iv) and followed for up to 6 week. Table 1, below illustrates the effect of STZ on blood glucose, body weight, systolic blood pressure and 24 hours of urine volume as well as the effect of ATL146e. […] Results are illustrated in FIG. 2.

[3] = system: STZ (45 mg/kg) Diabetic Model; experiment: Blood glucose, body weight, systolic blood pressure and urine volume in STZ diabetic model; format: in vivo, rats; conditions: for 24 h Urine Volume / Body Weight / Systolic Blood Pressure: Diabetes + ATL146e (10 ng/kg/min); for 24 h Urine Volume / Body Weight / Systolic Blood Pressure / Blood Glucose: STZ rats; for Blood Glucose: Diabetes + ATL146e (10 ng/kg/min, osmotic minipump)
Protocol: Effects of ATL146e on Blood Glucose, Body Weight, Systolic Blood Pressure and Urine Volume in STZ (45 mg/kg) Diabetic Model (n=5 Each Group) Rats were administered ATL146e (10 ng/kg/min) or vehicle by osmotic minipumps prior to the induction of diabetes by STZ […] and followed for up to 6 week. Table 1, below illustrates the effect of STZ on blood glucose, body weight, systolic blood pressure and 24 hours of urine volume as well as the effect of ATL146e. Table 1 summarizes the data for blood glucose (BG), body weight (BW), systolic blood pressure (SBP) and 24 hour urinary volume (UV). Basal BG level was 74±4 mg/dl and increased to 325±4 mg/dl 48 hours after STZ-induction of diabetes and continued to be elevated at 3 and 6 weeks of the study period. Normal rats gained weight as expected. […] There were no significant changes in SBP, 3 weeks after STZ-induction of diabetes between all groups.

[4] = system: TNF-alpha; experiment: Urinary and plasma TNF-alpha in diabetes; format: in vivo, rats
Protocol: as §1, with “ATL146e. Urinary TNF-alpha was not different between groups before STZ treatment.” for “ATL146e.”, “3.” for “2.”

[5] = system: Nitric Oxide End Products (Nitrite and Nitrate) (NOX); experiment: Urinary nitric oxide end products (nitrite and nitrate) (NOX) in diabetes; format: in vivo; conditions: diabetic rats, 6 week after STZ induction, FIG. 4, in words
Protocol: as §1, with “ATL146e. As shown to the right, NOX (as an indicator of endothelial function in the kidney) was decreased in diabetes group at 6 week after STZ induction of diabetes. The decreased in NOX was improved by ATL146e.” for “ATL146e.”, “4.” for “2.”

[6] = system: STZ-induced diabetic animal model; experiment: Urinary albumin excretion in diabetes; format: in vivo; conditions: STZ diabetic rats, 24 hour urine, FIG. 1, in words
Protocol: as §1, with “ATL146e. Urine collections were obtained for 24 hours for measurement of urinary albumin excretion (UAE). UAE rate was 135±35 μg/24 hours at baseline and increased to 1265±500 μg/24 hours and 2921±335 μg/24 hours (P<0.0001) at week 2 and 6, respectively in the diabetic group.” for “ATL146e.”, “1.” for “2.”

In the case of `CCNC(=O)C1OC(n2cnc3c(N)nc(C#CCC4CCC(C(=O)OC)CC4)nc32)C(O)C1O` (stereo not drawn) [ATL146e, 4-{3-[6-Amino-9-(5-ethylcarbamoyl-3,4-dihydroxytetrahydro-furan-2-yl)-9H-purin-2-yl]-prop-2-ynyl}cyclo-hexanecarboxylic acid methyl ester], the “Effect on the increase in fibronectin mRNA induced by diabetes” value [1] was “reduced to levels near control”, the “Effect on the increase in plasma creatinine” value [2] was “significantly restored to normal” and the “24 h Urine Volume” value ([3]; Baseline) was 15 ± 2 mL. The “Body Weight” value ([3]; Baseline) was 250 ± 13 g, the “24 h Urine Volume” value ([3]; Week 2) was 53 ± 13 mL and the “Body Weight” value ([3]; Week 3) was 323 ± 13 g. The “Systolic Blood Pressure” value ([3]; Week 3) was 123 ± 4 mmHg, the “24 h Urine Volume” value ([3]; Week 4) was 57 ± 15 mL and the “24 h Urine Volume” value ([3]; Week 6) was 59 ± 23 mL. For the same compound, the “Body Weight” value ([3]; Week 6) was 358 ± 24 g, the “Systolic Blood Pressure” value ([3]; Week 6) was 114 ± 2 mmHg and the “Blood Glucose” value ([3]; Baseline) was 75 ± 5 mg/dL. For the same compound, the “Blood Glucose” value ([3]; Week 1) was 311 ± 37 mg/dL, the “Blood Glucose” value ([3]; Week 6) was 359 ± 23 mg/dL and the “Effect on the increase in SBP observed in diabetes with no treatment” value ([3]; STZ diabetic rats, after 6 weeks, in words) was “restored the increase in SBP”. The “24 hour urinary volume (UV)” value ([3]; diabetes+ATL146e group after STZ-induction, throughout study period, in words) was “increased significantly”, the “Increase in BW” value ([3]; diabetes+ATL146e rats versus normal rats of matched age, in words) was “modest and significant from normal rats” and the “Plasma TNF-alpha” value ([4]; all groups, any point of the study periods (data not shown)) was “not detectable”. For the same compound, the “Effect on the increase in TNF-alpha (printed: Plasma TNF-alpha)” value ([4]; diabetic rats, 6 week after diabetes, FIG. 3, in words) was “significantly (P<0.05) reduced the increase in Plasma TNF-alpha”, the “Effect on decreased urinary NOX” value [5] was “restored to normal levels” and the “Effect on urinary albumin excretion (UAE)” value [6] was “minimizes the increase of UAE”.
